This is an account of results in PubChem BioAssay AID2202554 (NIEHS Division of Translational Toxicology (DTT)).

Inconclusive results are not listed. Activity calls are given as the source filed them. No rule for the calls is given here.

This series relates to S. typhimurium/E. coli reverse mutation, colony counts. Description: Bacterial reverse mutation test (aka Ames test) summary data. The procedure, abridged:
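Revertant colony counts on plates, compared with untreated controls, after about two days of growth. Exposure with or without liver S9 (rat/hamster/mouse), dose range per strain, 20-min 37° C preincubation or direct plate incorporation. Strains: his⁻ Salmonella, trp⁻ E. coli WP2 uvrA pKM101.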
On the technique in general: In the Ames test, an excess of revertant colonies over the control signals mutagenicity.
In the case of `CCOc1cc(C=O)ccc1O`, the outcome is “inactive; negative”. Take `OC(c1ccc(Cl)cc1)(c1ccc(Cl)cc1)C(Cl)(Cl)Cl`: the outcome was “inactive; negative”. Consider `O=C(O)c1cc(=O)[nH]c(=O)[nH]1`, for which the outcome is “inactive; negative”. Regarding `CCCCCCCCCCCCCCCCCC(O)=[OH+].O.[Cl][Cr][Cl].[Cl][Cr][Cl]`, the outcome was “active; positive”. In the case of `Brc1c(Br)c(Br)c(Br)c(Br)c1Br`, the outcome is “inactive; negative”. In the case of `OCc1ccco1`, the outcome is “inactive; negative”. Consider `N#[N+]c1ccc2c(S(=O)(=O)[O-])cccc2c1O`, for which the outcome is “active; positive”. `C=CCN=C=S`: the outcome was “active; weakly positive”.

As to `c1ccc2c(c1)CCNC2`, the outcome is “inactive; negative”. Turning to `O=C(O)c1cc(O)c2c(c1)[C@@H]([C@H]1c3cc(C(=O)O)cc(O)c3C(=O)c3c(O[C@@H]4O[C@H](CO)[C@@H](O)[C@H](O)[C@H]4O)cccc31)c1cccc(O[C@@H]3O[C@H](CO)[C@@H](O)[C@H](O)[C@H]3O)c1C2=O`, the outcome was “inactive; negative”. To `O=C1C(Cl)=C(Cl)C(=O)C(Cl)=C1Cl` belongs “active; positive”; to `FC(F)(F)c1cccc(Cl)c1`, “inactive; negative”; to `OCC(Br)CBr` (stereo unspecified), “active; positive”. Regarding `CCC1(c2ccccc2)C(=O)NC(=O)NC1=O`, the outcome is “active; weakly positive”.

Consider `Nc1ccccc1C(=O)O`, for which the outcome was “inactive; negative”. Consider `ClC(Cl)(Cl)CC1CO1` (stereo unspecified), for which the outcome was “active; positive”.

As for `ClC/C=C/CCl`, the outcome is “active; positive”.

On to `CN1C[C@H](C(=O)N[C@]2(C)O[C@@]3(O)[C@@H]4CCCN4C(=O)[C@H](Cc4ccccc4)N3C2=O)C=C2c3cccc4[nH]cc(c34)C[C@H]21`, for which the outcome was “inactive; negative”. To `O=C(O)CCCC(=O)O` belongs “inactive; negative”; to `CCC[N+](=O)[O-]`, “inactive; negative”. To `O=P(O)(O)Oc1c[nH]c2ccccc12` belongs “active; positive”; to `O=C(O)C(Br)(Br)Br`, “active; positive”.

On to `CSSC`, for which the outcome was “inactive; negative”. On to `O=C(Nc1ccc(Cl)cc1)Nc1ccc(Cl)c(Cl)c1`, for which the outcome is “inactive; negative”. As for `Cc1cccc(Br)c1`, the outcome was “inactive; negative”. `O=S1OCC2C(CO1)C1(Cl)C(Cl)=C(Cl)C2(Cl)C1(Cl)Cl` (stereo unspecified): the outcome is “inactive; negative”.

Consider `ClC1=C(Cl)[C@]2(Cl)[C@@H]3[C@H]4C[C@H]([C@@H]5O[C@H]45)[C@@H]3[C@@]1(Cl)C2(Cl)Cl`, for which the outcome is “inactive; negative”. In the case of `CC(C)CN(CC(C)C)CC(C)C`, the outcome is “inactive; negative”. In the case of `Sc1ccccc1`, the outcome is “inactive; negative”. On to `Cc1c(N(C)C)c(=O)n(-c2ccccc2)n1C`, for which the outcome was “active; weakly positive”. For `CCC[CH2][Sn]([CH2]CCC)([O]C(C)=O)[O]C(C)=O`, the outcome was “inactive; negative”. To `Cc1ccc(S(=O)(=O)Oc2ccc(N=Nc3ccc(-c4ccc(N=Nc5c(O)ccc6cc(S(=O)(=O)O)cc(S(=O)(=O)O)c56)c(C)c4)cc3C)cc2)cc1` belongs “active; positive”. As for `ClC(Cl)C(Cl)(Cl)Cl`, the outcome is “inactive; negative”.

Regarding `CC(COC(=O)c1ccccc1)(COC(=O)c1ccccc1)COC(=O)c1ccccc1`, the outcome was “inactive; negative”. To `O=S(O)c1ccc(Cl)cc1` belongs “inactive; negative”; to `CC1=NN(c2ccccc2)C(=O)C1`, “inactive; negative”.

For the compound `COC(C)(C)CC(C)=O`, the outcome was “inactive; negative”. For the compound `CCCCCCCCCCCC[S][Sn]([CH2]CCC)([CH2]CCC)[S]CCCCCCCCCCCC`, the outcome is “inactive; negative”. Consider `CCOC(=O)c1ccccc1N`, for which the outcome was “inactive; negative”. Regarding `CCCCCNCCCCC`, the outcome was “inactive; negative”.

Take `O=C1OC(=O)c2cc([N+](=O)[O-])ccc21`: the outcome is “active; positive”.

`O=C1NC(=O)c2cc([N+](=O)[O-])ccc21`: the outcome was “active; positive”.

Consider `CC(C)(O)C#N`, for which the outcome was “inactive; negative”. As for `Cc1coc2c1CCC(C)C2` (stereo unspecified), the outcome was “inactive; negative”. For the compound `CCN(CC)C(=S)S`, the outcome was “inactive; negative”. On to `O=Cc1ccc(Cl)cc1`, for which the outcome was “inactive; negative”. With `CC[C@H]1OC(=O)[C@H](C)[C@@H](O[C@H]2C[C@@](C)(OC)[C@@H](O)[C@H](C)O2)[C@H](C)[C@@H](O[C@@H]2O[C@H](C)C[C@H](N(C)C)[C@H]2O)[C@](C)(OC)C[C@@H](C)C(=O)[C@H](C)[C@@H](O)[C@]1(C)O`, the outcome is “inactive; negative”. In the case of `Cc1cccc2cccnc12`, the outcome is “active; positive”.

In the case of `Cl/C=C\Cl`, the outcome was “inactive; negative”. Take `CCC(CO)[N+](=O)[O-]` (stereo unspecified): the outcome is “inactive; negative”.

Regarding `NC(=O)c1cccc([N+](=O)[O-])c1`, the outcome was “active; positive”. `NCCNCCN`: the outcome was “inactive; negative”.

For `Cc1cccc(C#N)c1`, the outcome was “inactive; negative”. Turning to `OCCCBr`, the outcome is “active; positive”.

For the compound `CC(C)[C@@H]1CC[C@@H](C)C[C@@H]1O`, the outcome is “inactive; negative”. With `O=[N+]([O-])c1cc(Cl)c(Cl)c(Cl)c1`, the outcome is “active; positive”. `CCCCCCCCCCCC(=O)N(CCO)CCO`: the outcome is “inactive; negative”.

Turning to `CCN(C(=O)N(CC)c1ccccc1)c1ccccc1`, the outcome is “inactive; negative”. For the compound `CC(O)COc1ccccc1` (stereo unspecified), the outcome is “inactive; negative”. Consider `CC(C)(Cl)Cl`, for which the outcome is “inactive; negative”. To `C1CCCC1` belongs “inactive; negative”; to `C=CCCC`, “inactive; negative”; to `CCCCCc1cc(O)c2c(c1)OC(C)(C)[C@@H]1CCC(C)=C[C@@H]21`, “inactive; negative”.

With `Nc1ccc2ccccc2c1N=Nc1ccc([N+](=O)[O-])cc1`, the outcome is “active; positive”. As for `COc1ccc([N+](=O)[O-])cc1N`, the outcome was “active; positive”. Take `C=C(C)C(=O)OC(C)C`: the outcome is “inactive; negative”. Take `O=C(OCC1CO1)C1CCCCC1C(=O)OCC1CO1` (stereo unspecified): the outcome is “active; positive”.

As for `Cc1ccc(O)c(C)c1`, the outcome was “active; weakly positive”. With `C1OCOCO1`, the outcome was “inactive; negative”. With `O=[N+]([O-])c1cc(Cl)c(Cl)c(Cl)c1Cl`, the outcome was “inactive; negative”.

With `CC[C@H]1OC(=O)[C@H](C)[C@@H](O[C@H]2C[C@@](C)(OC)[C@@H](O)[C@H](C)O2)[C@H](C)[C@@H](O[C@@H]2O[C@H](C)C[C@H](N(C)C)[C@H]2O)[C@](C)(O)C[C@@H](C)C(=O)[C@H](C)[C@@H](O)[C@]1(C)O`, the outcome is “inactive; negative”.

With `NCCNCCO`, the outcome was “active; weakly positive”.

As for `CCCCOC(=O)c1ccccc1N`, the outcome was “inactive; negative”. With `CC1=C(/C=C/C(C)=C/C=C/C(C)=C/C=O)C(C)(C)CCC1`, the outcome was “active; positive”. To `C[Si]12OCCN(CCO1)CCO2` belongs “inactive; negative”. With `CC(=O)O[C@H](CC(=O)[O-])C[N+](C)(C)C`, the outcome was “inactive; negative”. With `COC(=O)c1ccc(C=O)cc1`, the outcome was “inactive; negative”.

`COC(=O)/C=C/C(C)=C\C=C\C(C)=C\C=C\C=C(C)\C=C\C=C(C)\C=C\C(=O)O`: the outcome was “active; positive”. Take `CC(C)=CCC/C(C)=C/CC/C(C)=C/CC/C=C(\C)CC/C=C(\C)CCC=C(C)C`: the outcome is “inactive; negative”. Take `Cc1cc2nc3c(=O)[nH]c(=O)nc-3n(C[C@H](O)[C@H](O)[C@H](O)CO)c2cc1C`: the outcome is “inactive; negative”. Take `CCCC(CCC)C(=O)O`: the outcome is “inactive; negative”.

As to `O=C(NCNC(=O)NC1C(=O)NC(=O)N1CO)NC1C(=O)NC(=O)N1CO` (stereo unspecified), the outcome is “active; positive”. Consider `Cc1cc(Br)ccc1NC(=O)CCl`, for which the outcome was “active; positive”. With `CCCC=NO`, the outcome was “active; weakly positive”. Consider `Oc1ccc2cc(SSc3ccc4cc(O)ccc4c3)ccc2c1`, for which the outcome is “inactive; negative”. As for `CC(=O)C=Cc1ccco1`, the outcome is “inactive; negative”. With `CC(C)=CCCC(C)=CC=O`, the outcome was “inactive; negative”. To `Cc1cc(C)nc(NS(=O)(=O)c2ccc(N)cc2)n1` belongs “inactive; negative”.

`Clc1ccccn1`: the outcome was “active; positive”. To `COc1cc(Cl)c(OC)cc1Cl` belongs “active; positive”. As for `CNc1ccc(O)cc1`, the outcome was “active; positive”. For `Nc1cc([N+](=O)[O-])ccc1C(=O)O`, the outcome was “active; positive”.

For the compound `O=c1[nH][nH]c(=O)c2cc([N+](=O)[O-])ccc12`, the outcome is “active; positive”.

For the compound `F`, the outcome was “inactive; negative”. As for `Nc1ccc([As](=O)(O)O)cc1`, the outcome is “inactive; negative”.

`Cc1ccc2c(C)cccc2c1`: the outcome is “inactive; negative”.

As for `CCN(Cc1cccc(S(=O)(=O)[O-])c1)c1ccc(C(=C2C=CC(=[N+](C)C)C=C2)c2ccc(N(CC)Cc3cccc(S(=O)(=O)O)c3)cc2)cc1`, the outcome is “active; positive”. With `COP(=S)(OC)Oc1ccc(SC)c(C)c1`, the outcome is “active; weakly positive”. To `C=CC(=O)CC` belongs “active; positive”; to `Cc1cc(=O)oc2cc(O)cc(O)c12`, “inactive; negative”; to `c1ccc(P(c2ccccc2)c2ccccc2)cc1`, “inactive; negative”.
